Experiments:
[1] = target: NS5B-621 from HCV GT-1b Con-1 (Hepatitis C virus genotype 1b, UniProt Q9WMX2); assay: NS5B RNA-dependent RNA polymerase inhibition assay; assay type: biochemical; conditions: 1 μM NTP substrates including either [32P]-CTP or [32P]-UTP, columns not distinguished
Experimental: Compounds were assayed for inhibition of NS5B-621 from HCV GT-1b Con-1. Reactions included purified recombinant enzyme, 1 u/μL negative-strand HCV IRES RNA template, and 1 μM NTP substrates including either [^32P]-CTP or [^32P]-UTP. Assay plates were incubated at 27° C. for 1 hour before quench. [^32P] incorporation into macromolecular product was assessed by filter binding.

[2] = system: HCV Replicon 1b-Con1; assay: HCV replicon GT-1b luciferase assay; assay type: cell-based; conditions: Hepatitis C virus, GT1B, read-out: HCV Replicon 1b-Con1 EC50
Excerpt: Cell Culture—The reporter cell line Huh-luc/neo-ET was obtained from Dr. Ralf Bartenschlager (Department of Molecular Virology, Hygiene Institute, University of Heidelberg, Germany) by ImQuest BioSciences through a specific licensing agreement. This cell line harbors the persistently replicating I389luc-ubi-neo/NS3-3′/ET replicon containing the firefly luciferase gene-ubiquitin-neomycin phosphotransferase fusion protein and EMCV IRES driven NS3-5B HCV coding sequences containing the ET tissue culture adaptive mutations (E1202G, Tl2081, and K1846T). A stock culture of the Huh-luc/neo-ET was expanded by culture in DMEM supplemented with I 0% FCS, 2 mM glutamine, penicillin ([…])/streptomycin (100 μg/mL) and I× nonessential amino acids plus 1 mg/mL G418. The cells were split 1:4 and cultured for two passages in the same media plus 250 μg/mL G418. […] 5% C02 then anti-HCV activity was measured by luciferase endpoint. […]
Measurement of Virus Replication-HCV replication from the replicon assay system was measured by luciferase activity using the britelite plus luminescence reporter gene kit according to the manufacturer's instructions (Perkin Elmer, Shelton, Conn.). […] The well contents were transferred to a white 96-well plate and luminescence was measured within 15 minutes using the Wallac 1450Microbeta Trilux liquid scintillation counter. […]

[3] = system: HCV Replicon 1a-H77; assay: HCV replicon GT-1a luciferase assay; assay type: cell-based; conditions: Hepatitis C virus, GT1A, GT-1a H77 replicon

Row | IC50 ([1]; first IC50 column) [µM] | IC50 ([1]; second IC50 column) [µM] | Compound | EC50 [2] [µM] | EC50 [3] [µM]
1 | 1 | 13.4 | O=c1ccn([C@@H]2O[C@H](COP(=O)(O)OP(=O)(O)OP(=O)(O)O)[C@@H](O)[C@]2(O)CF)c(=O)[nH]1 [DRIVE-0060] | – | –
2 | – | – | CC(C)OC(=O)[C@H](C)N[P@](=O)(OC[C@H]1O[C@@H](n2ccc(=O)[nH]c2=O)[C@@](O)(CF)[C@@H]1O)Oc1ccccc1 [DRIVE-0087] | 0.75 | 0.54
